{"source": "patent US20070059687A1", "about": "“Process for evaluating phagocytotic function and use thereof” (priority 2001, published 2007)", "key": {"Micrococcus luteus": {"system": "Micrococcus luteus", "test": "Lysis evaluated by decrease in turbidity at 600 nm", "type": "cell-based", "settings": "lysozyme 10,000 unit/ml", "experimental": "(§1) Enterococcus faecalis was inoculated in 50 ml of the aforementioned BHI liquid medium, and cultured at 37° C. for 8 hours or longer. This culture liquid was centrifuged at 4° C. for 10 minutes at 2,000×g to collect the bacteria, followed by subjecting to a heat treatment in an autoclave (120° C., for 10 minutes) after suspending in PBS. Next, the suspension was centrifuged at 4° C. for 10 minutes at 2,000×g, and the supernatant was discarded. Precipitates were suspended in 1 ml of PBS, and thereafter, subjected to freeze-drying. This freeze-dried sample was suspended in 5 mmol/l Tris-hydrochloric acid (pH 6.0), 2 mmol/l magnesium chloride containing 0 to 10% DMSO to give the samples for N-acetylmuramidase. Further, Micrococcus luteus (JCM1464) was inoculated in 5 ml of BHI liquid medium (supra), and cultured at 37° C. for 8 hours or longer. The cultured bacterial liquid was centrifuged at 4° C. for 10 minutes at 2,000×g to collect the bacteria. After discarding the supernatant, and suspending and washing the bacterial pellet with 5 ml of PBS, centrifugation was conducted once again at 4° C. for 10 minutes at 2,000×g to collect the bacteria. […] Enzymatic activity was evaluated on the basis of the decrease in turbidity of the sample at the absorbance of 600 nm using a microplate reader. […] Additionally, no decrease in enzymatic activity was found with DMSO at the concentration of 2% or less. […] The results are show in FIG. 4(a) to (c) and Table 3 below."}, "Enterococcus faecalis": {"system": "Enterococcus faecalis", "test": "Lysis evaluated by decrease in turbidity at 600 nm", "type": "cell-based", "text": "(§2) Conditions for the enzyme to lyse Staphylococcus aureus (ATCC 12600), Staphylococcus epidermidis (ATCC 14990), Pseudomonas aeruginosa (ATCC 10145), Enterococcus faecalis (ATCC 19433) and Escherichia coli (ATCC 11775) were studied. For Staphylococcus aureus and Staphylococcus epidermidis, lysostafin was used as the lytic enzyme (Bur. J. Biochem., 38, 293-300, 1973). […] Further, for Pseudomonas aeruginosa and Escherichia coli, PBS containing 70 mmol/l sodium hydroxide was used. Each type of these bacteria was inoculated in 5 ml of BHI (Brain Heart Infusion) liquid medium (manufactured by DIFCO), and cultured at 37° C. for 8 hours or longer. Thus cultured bacterial liquid was collected by centrifugation at 4° C. for 10 minutes at 2,000×g. The collected bacteria were suspended in PBS to give a sample.\n(§3) Lysis was evaluated by decrease in turbidity of the bacterial liquid at the absorbance of 600 nm using a microplate reader. Consequently, Staphylococcus aureus and Staphylococcus epidermidis were lysed by lysostafin. In respect of Pseudomonas aeruginosa and Escherichia coli, no enzymatic treatment was required because lysis was conducted with PBS containing 70 mmol/l sodium hydroxide. […] Moreover, when the bacterium incorporated upon phagocytotic action is for example, Pseudomonas aeruginosa, Escherichia coli or the like, bacterial cell wall is lysed during the alkaline treatment to result in the state in which the gene is exposed. Therefore, it is not necessary to conduct this enzymatic treatment. Each enzyme for the pretreatment which is used in lysis of the foreign microorganism according to the present invention is effective not only for the aforementioned bacterial strain, but also for other bacterial strain that includes other genus staphylococcus, genus streptococcus, genus bacillus, genus micrococcus and the like. […] The results are illustrated in FIG. 3, specifically, in regard to: (a) Staphylococcus aureus and Staphylococcus epidermidis, (b) Pseudomonas aeruginosa and Escherichia coli, and (c) Enterococcus faecalis.\nas §1"}, "[1]": {"system": "Staphylococcus epidermidis", "test": "Lysis evaluated by decrease in turbidity at 600 nm", "type": "cell-based", "settings": "lysostafin 50 unit/ml", "text": "as §2, §3, §1"}, "digested samples": {"system": "digested samples", "test": "Influence of surfactant added to hybridization solution on signal detection", "type": "cell-based", "settings": "for detection sensitivity: surfactant added to the probe dilution solution, SDS 0.25%", "experimental": "A solution containing 15 ng of a digoxigenin labelled DNA probe prepared with a probe dilution solution (including 0.25% SDS, 600 μl of salmon sperm DNA, 50 μl of 100× Denhardt's solution, 500 μl of a hybridization stock solution, 2250 μl of formamide, 1000 μl 50% dextran sulfate) is coated on the smeared site, and the slide was left to stand still in a humid box at 37° C. to 42° C. for 2 hours. A probe solution without including SDS was determined as a control. The digoxigenin labelled DNA probe was produced by a nick translation method. Thereafter, a hybridization washing solution (prepared by mixing a hybridization stock solution (13.15 g of sodium chloride, 6.615 g of trisodium citrate dihydrate, adjusted to give the total volume of 75 ml with sterile purified water) in a ratio of the hybridization stock solution:sterile purified water:formamide=5:4:50) was provided in three staining bottles, and sequentially the sample was immersed at 42° C. for 10 minutes, respectively.\nThe digested samples produced according to the process described in Example 17(1) and [2] were used as specimens. […] In addition, the detection sensitivity could be improved by lauryl sarcosine, BRIJ 35 or Tween 20."}, "[2]": {"system": "specimen A-SA (Staphylococcus aureus)", "test": "In situ hybridization of clinical blood specimens of patients suspected of sepsis", "type": "cell-based", "settings": "0.25% SDS added to probe dilution solution, FIG. 1", "experimental": "As clinical specimens, 12 specimens of blood collected from patients suspected as suffering from sepsis (specimens A to L) were used. Ten ml of heparinized venous blood was collected from each patient, and after admixing the blood with a reagent for separating blood (225 mg of sodium chloride, 1.5 g of dextran (MW: 200,000-300,000)), adjusted to give the total volume of 25 ml with sterile purified water) at a ratio of 4:1, a leukocyte fraction (upper layer) was obtained by leaving to stand still at 37° C. for 30 minutes. […] The slide glass was immersed in PBS for 10 minutes, and thereafter, in a solution of an enzyme pretreatment reagent (prepared by mixing 1.25 g of saponin, 1.25 ml of t-octylphenoxypolyethoxyethanol (specific gravity: 1.068 to 1.075 (20/4° C.), pH (5 w/v %) 5.5-7.5) and 25 ml of the PBS stock solution, and adjusting to give the total volume of 50 ml with sterile purified water) diluted to 10 fold in sterile purified water, and allowing infiltration on a shaker for 10 minutes. […] Then, it was immersed in PBS containing 0.2 mol/l hydrochloric acid (prepared by adding hydrochloric acid to the PBS stock solution, 20 fold dilution in sterile purified water, and adjusting to give the final concentration of hydrochloric acid of 0.2 mol/l) and allowed infiltration on a shaker for 10 minutes as it was. […] A probe solution without including SDS was determined as a control. […]"}, "EF digested sample": {"system": "EF digested sample", "test": "Enzymatic treatment of digested sample, bacterial bodies in leukocytes by acridine orange staining", "type": "cell-based, Enterococcus faecalis", "settings": "N-acetylmuramidase fixed at 100 unit/ml", "experimental": "Using the slide glass having each digested sample smeared thereon, the enzymatic pretreatment was performed according to the process described in Example 3. Next, the slide glass after completing the enzymatic pretreatment was placed in a humid box, and the reaction was allowed by dropping 1 ml of each enzyme solution prepared to give each titer on the smeared site of the specimen. Thereafter, the slide glass was immersed in PBS containing 0.2 mol/l hydrochloric acid, and in 70% ethanol respectively, for 10 minutes, and air dried. After immersing this slide glass in PBS containing 70 mmol/l sodium hydroxide for 3 minutes, and in 70% ethanol for 10 minutes, it was air dried and stained with 1% acridine orange staining solution. Then, evaluation was made with a fluorescence microscope (×1,000). For Staphylococcus aureus and Staphylococcus epidermidis, examination of the optimal titer was conducted with lysostafin. […] The determination was made as adequate when no bacterial body was identified in the leukocytes by the enzymatic treatment.\nUsing a slide glass including each digested sample smeared thereon, examination was conducted according to the process described in example 17 (2). Time period of the enzymatic treatment in this test was 30 minutes, and the temperature for examination was 4° C., 25° C., 37° C., 42° C., and 60° C.\nUsing the slide glass including each digested sample smeared thereon, examination was conducted according to the process described in example 17 (2). […] Determination was conducted according to the process described in example 17 (2)."}}}
{"compound": "C[S+](C)[O-]", "note": "[DMSO, dimethylsulfoxide]", "values": [{"measurement": "DMSO concentration at which decrease in activity was found", "setting": "Micrococcus luteus", "result": "≥ 5", "unit": "%"}, {"measurement": "DMSO concentration at which no decrease in enzymatic activity was found", "setting": "Micrococcus luteus", "result": "≤ 2", "unit": "%"}, {"measurement": "influence on N-acetylmuramidase activity", "setting": "Enterococcus faecalis; DMSO 0 to 10%, N-acetylmuramidase 300 unit/ml", "result": "hardly influenced"}, {"measurement": "DMSO concentration at which decrease in activity was found", "setting": "[1]", "result": "≥ 5", "unit": "%"}, {"measurement": "DMSO concentration at which no decrease in enzymatic activity was found", "setting": "[1]", "result": "≤ 2", "unit": "%"}]}
{"compound": "CCCCCCCCCCCCN(C)CC(=O)O", "note": "[Lauryl sarcosine]", "values": [{"measurement": "detection sensitivity", "setting": "digested samples", "result": "improved"}]}
{"compound": "CCCCCCCCCCCCOS(=O)(=O)[O-].[Na+]", "note": "[SDS, sodium dodecyl sulfate]", "values": [{"measurement": "preferable concentration", "setting": "digested samples; SDS at various concentrations", "result": "≤ 1", "unit": "%"}, {"measurement": "detection sensitivity", "setting": "digested samples", "result": "dramatically enhanced"}, {"measurement": "detection sensitivity of the signal", "setting": "[2]", "result": "markedly elevated"}]}
{"compound": "lysozyme: lytic enzyme (Seikagaku Corporation)", "values": [{"measurement": "Decrease in turbidity of bacteria", "setting": "Micrococcus luteus; added DMSO 0 % (control)", "result": "0.689 ± 0.028", "unit": "O.D./3 minutes"}, {"measurement": "Decrease in turbidity of bacteria", "setting": "Micrococcus luteus; added DMSO 0.1 %", "result": "0.678 ± 0.026", "unit": "O.D./3 minutes"}, {"measurement": "Decrease in turbidity of bacteria", "setting": "Micrococcus luteus; added DMSO 1 %", "result": "0.660 ± 0.026", "unit": "O.D./3 minutes"}, {"measurement": "Decrease in turbidity of bacteria", "setting": "Micrococcus luteus; added DMSO 2 %", "result": "0.653 ± 0.024", "unit": "O.D./3 minutes"}, {"measurement": "Decrease in turbidity of bacteria", "setting": "Micrococcus luteus; added DMSO 5 %", "result": "0.566 ± 0.017", "unit": "O.D./3 minutes"}, {"measurement": "Decrease in turbidity of bacteria", "setting": "Micrococcus luteus; added DMSO 10 %", "result": "0.464 ± 0.016", "unit": "O.D./3 minutes"}, {"measurement": "lytic activity", "setting": "Enterococcus faecalis; lysozyme in combination with N-acetylmuramidase versus N-acetylmuramidase alone, FIG. 3(c)", "result": "more excellent lytic activity"}, {"measurement": "enzymatic treatment determination", "setting": "EF digested sample; lysozyme titer 10 U/mL", "result": "inadequate"}, {"measurement": "enzymatic treatment determination", "setting": "EF digested sample; lysozyme titer 100 U/mL", "result": "inadequate"}, {"measurement": "enzymatic treatment determination", "setting": "EF digested sample; lysozyme titer 1,000 U/mL", "result": "inadequate"}, {"measurement": "enzymatic treatment determination", "setting": "EF digested sample; lysozyme titer 10,000 U/mL", "result": "adequate"}, {"measurement": "enzymatic treatment determination", "setting": "EF digested sample; lysozyme titer 100,000 U/mL", "result": "adequate"}]}
